Data taken from patent US6448405B1, “Steroid receptor modulator compounds and methods” (Ligand Pharmaceuticals Incorporated, priority 1994, dated 2002).
Like-named read-outs stand apart in the source and are kept apart here.

How the values were obtained:
PR, AR, ER, GR and MR = assay: cis-trans or co-transfection assay, steroid receptor panel (cross-reactivity); assay type: cell-based, human; conditions: as seen in the Tables
human PR-B = target: T1, human PR-B (Homo sapiens, UniProt P06401); assay: Co-transfection assay, PR agonist and antagonist activity, CV-1 cells; assay type: cell-based; conditions: for IC50: read-out: PR Antagonist CV-1 Cells Potency;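 for all read-outs here: luciferase reporter driven by a hormone response element, co-transfected with human PR-B into CV-1 monkey kidney cells, agonists raise and antagonists lower the reporter signal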
T1 construct: expressed in transfected cells; host or cells: CV-1 cells (African green monkey kidney fibroblasts), transient transfection
T1 sequence (P06401 1-933): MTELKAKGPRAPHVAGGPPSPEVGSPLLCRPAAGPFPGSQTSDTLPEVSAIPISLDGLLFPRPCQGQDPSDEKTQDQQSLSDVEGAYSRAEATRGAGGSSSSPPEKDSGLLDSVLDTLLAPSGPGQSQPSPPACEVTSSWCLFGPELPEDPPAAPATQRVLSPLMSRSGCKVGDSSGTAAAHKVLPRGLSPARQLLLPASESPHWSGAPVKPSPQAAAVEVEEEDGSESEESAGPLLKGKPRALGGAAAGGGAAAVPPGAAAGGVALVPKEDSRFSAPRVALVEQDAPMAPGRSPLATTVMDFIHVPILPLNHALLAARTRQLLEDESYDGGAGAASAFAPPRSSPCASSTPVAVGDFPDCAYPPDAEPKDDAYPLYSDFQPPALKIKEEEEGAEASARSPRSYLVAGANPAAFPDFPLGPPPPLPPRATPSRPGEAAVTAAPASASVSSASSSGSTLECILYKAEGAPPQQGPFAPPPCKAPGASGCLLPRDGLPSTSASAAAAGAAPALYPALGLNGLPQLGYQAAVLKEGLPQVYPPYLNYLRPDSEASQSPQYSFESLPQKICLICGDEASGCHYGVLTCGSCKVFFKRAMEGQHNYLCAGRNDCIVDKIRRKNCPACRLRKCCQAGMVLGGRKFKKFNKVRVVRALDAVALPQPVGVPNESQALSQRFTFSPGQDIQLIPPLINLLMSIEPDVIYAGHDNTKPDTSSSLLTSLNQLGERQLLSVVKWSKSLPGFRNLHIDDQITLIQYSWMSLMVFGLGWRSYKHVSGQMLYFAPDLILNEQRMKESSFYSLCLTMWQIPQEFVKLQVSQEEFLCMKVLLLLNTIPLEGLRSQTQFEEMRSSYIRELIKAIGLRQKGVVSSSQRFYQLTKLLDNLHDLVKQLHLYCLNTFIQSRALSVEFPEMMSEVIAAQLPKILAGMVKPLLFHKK

[1] = target: T2, human progesterone receptor A form (PR-A) (Homo sapiens, UniProt P06401); assay: PR binding assay, baculovirus extract, [3H] progesterone
T2 sequence (P06401 1-769 isoform P06401-2): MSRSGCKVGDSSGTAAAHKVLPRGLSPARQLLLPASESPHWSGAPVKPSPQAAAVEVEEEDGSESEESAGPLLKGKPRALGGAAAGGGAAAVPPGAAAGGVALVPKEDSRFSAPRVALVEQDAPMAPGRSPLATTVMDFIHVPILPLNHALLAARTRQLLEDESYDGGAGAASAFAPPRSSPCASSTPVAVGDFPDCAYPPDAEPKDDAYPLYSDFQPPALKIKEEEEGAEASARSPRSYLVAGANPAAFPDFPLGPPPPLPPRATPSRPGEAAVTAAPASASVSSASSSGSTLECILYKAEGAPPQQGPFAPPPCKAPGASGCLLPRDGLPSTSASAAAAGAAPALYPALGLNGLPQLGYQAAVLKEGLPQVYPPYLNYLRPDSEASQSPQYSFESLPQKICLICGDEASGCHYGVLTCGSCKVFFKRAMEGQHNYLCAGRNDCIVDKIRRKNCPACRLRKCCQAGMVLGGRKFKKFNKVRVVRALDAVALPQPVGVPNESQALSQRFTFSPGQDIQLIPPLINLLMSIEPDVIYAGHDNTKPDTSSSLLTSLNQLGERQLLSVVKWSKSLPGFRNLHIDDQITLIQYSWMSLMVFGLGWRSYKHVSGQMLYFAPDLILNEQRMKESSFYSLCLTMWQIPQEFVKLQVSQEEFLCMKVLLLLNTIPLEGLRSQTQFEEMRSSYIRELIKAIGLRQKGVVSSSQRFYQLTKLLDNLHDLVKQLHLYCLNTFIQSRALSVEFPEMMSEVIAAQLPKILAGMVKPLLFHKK

[2] = test system: uterine wet weight in ovariectomized Sprague-Dawely rats; assay: Uterine wet weight assay (PR agonists); assay type: in vivo, rat; conditions: for effect on uterine wet weight when co-administered with estrone: MPA and Compound 210 at 0.3, 1.0 and 3.0 mg/rat, Compound 163 at 3 mg/rat
Excerpt: The effectiveness of selected compounds of the present invention as PR agonists was investigated in the well recognized uterine wet weight assay, as described in G. J. Marcus, “Mitosis in the rat uterus during the estrous cycle, early pregnancy and early pseudopregnancy”, 10 Biol. Reprod., 447 (1974), S. […] J. Obstet. […] I. Dorfman, “Estrogens” (Ch. 2) and “Antiestrogens” (Ch. 3). in Methods in Hormone Research, ed. R. I. Dorfman, Academic Press, New York, New York, pp101-130 (1969), the disclosures of which are herein incorporated by reference. Four to five week old, ovariectomized, Sprague-Dawely rats (Harlan-Sprague-Dawely, Indianapolis, Ind.) were obtained 1 week after surgery and allowed to acclimate for an additional week after shipment. […] Louis, Mo.) a synthetic estrogen agonist, were fully dissolved in purified sesame oil (Croda, Parsippany, N.J.). […] Additional control groups of rats were administered estrone or vehicle (i.e. sesame oil) alone. Animals were sacrificed on the fourth day of the experiment.

[3] = target: T3, human mineralocorticoid receptor (MR) (Homo sapiens, UniProt P08235); assay: Co-transfection assay, MR antagonist activity, CV-1 cells (pRShMR); assay type: cell-based; conditions: Table 4; antagonist mode; % maximal inhibition
T3 construct: expressed in transfected cells; host or cells: CV-1 cells, transient transfection
T3 sequence (P08235 1-984): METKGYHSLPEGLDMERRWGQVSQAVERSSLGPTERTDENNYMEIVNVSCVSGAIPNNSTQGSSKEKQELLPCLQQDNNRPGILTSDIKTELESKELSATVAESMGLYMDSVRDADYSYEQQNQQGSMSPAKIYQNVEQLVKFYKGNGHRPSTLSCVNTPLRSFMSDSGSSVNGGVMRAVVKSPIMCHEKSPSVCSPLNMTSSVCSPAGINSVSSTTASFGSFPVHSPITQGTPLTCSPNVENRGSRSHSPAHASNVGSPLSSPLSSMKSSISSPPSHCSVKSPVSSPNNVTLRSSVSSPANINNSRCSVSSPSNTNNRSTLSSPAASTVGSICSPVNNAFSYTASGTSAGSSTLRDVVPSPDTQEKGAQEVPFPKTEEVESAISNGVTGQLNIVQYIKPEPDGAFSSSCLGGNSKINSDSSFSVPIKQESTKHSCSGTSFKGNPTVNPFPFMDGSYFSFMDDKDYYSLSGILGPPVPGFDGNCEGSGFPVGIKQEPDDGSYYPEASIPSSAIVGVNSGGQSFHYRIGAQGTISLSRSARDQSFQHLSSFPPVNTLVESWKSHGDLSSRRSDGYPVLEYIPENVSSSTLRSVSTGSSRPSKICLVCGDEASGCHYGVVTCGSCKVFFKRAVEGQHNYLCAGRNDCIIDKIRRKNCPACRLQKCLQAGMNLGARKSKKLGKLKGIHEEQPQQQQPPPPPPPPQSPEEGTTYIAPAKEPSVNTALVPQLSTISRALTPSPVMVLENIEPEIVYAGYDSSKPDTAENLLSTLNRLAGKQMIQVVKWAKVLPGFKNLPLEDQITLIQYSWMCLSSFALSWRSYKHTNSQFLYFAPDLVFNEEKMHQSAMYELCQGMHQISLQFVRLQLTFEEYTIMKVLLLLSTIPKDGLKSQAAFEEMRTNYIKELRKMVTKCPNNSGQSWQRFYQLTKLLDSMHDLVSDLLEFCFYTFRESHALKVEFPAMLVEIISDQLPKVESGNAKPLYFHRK

[4] = target: T4, human glucocorticoid receptor (GR) (Homo sapiens, UniProt P04150); assay: Co-transfection assay, GR antagonist activity, CV-1 cells (pRShGR); assay type: cell-based; conditions: for GR Antagonist CV-1 Cells Efficacy (%): Table 4, antagonist mode, % maximal inhibition
T4 construct: expressed in transfected cells; host or cells: CV-1 cells, transient transfection
T4 sequence (P04150 1-777): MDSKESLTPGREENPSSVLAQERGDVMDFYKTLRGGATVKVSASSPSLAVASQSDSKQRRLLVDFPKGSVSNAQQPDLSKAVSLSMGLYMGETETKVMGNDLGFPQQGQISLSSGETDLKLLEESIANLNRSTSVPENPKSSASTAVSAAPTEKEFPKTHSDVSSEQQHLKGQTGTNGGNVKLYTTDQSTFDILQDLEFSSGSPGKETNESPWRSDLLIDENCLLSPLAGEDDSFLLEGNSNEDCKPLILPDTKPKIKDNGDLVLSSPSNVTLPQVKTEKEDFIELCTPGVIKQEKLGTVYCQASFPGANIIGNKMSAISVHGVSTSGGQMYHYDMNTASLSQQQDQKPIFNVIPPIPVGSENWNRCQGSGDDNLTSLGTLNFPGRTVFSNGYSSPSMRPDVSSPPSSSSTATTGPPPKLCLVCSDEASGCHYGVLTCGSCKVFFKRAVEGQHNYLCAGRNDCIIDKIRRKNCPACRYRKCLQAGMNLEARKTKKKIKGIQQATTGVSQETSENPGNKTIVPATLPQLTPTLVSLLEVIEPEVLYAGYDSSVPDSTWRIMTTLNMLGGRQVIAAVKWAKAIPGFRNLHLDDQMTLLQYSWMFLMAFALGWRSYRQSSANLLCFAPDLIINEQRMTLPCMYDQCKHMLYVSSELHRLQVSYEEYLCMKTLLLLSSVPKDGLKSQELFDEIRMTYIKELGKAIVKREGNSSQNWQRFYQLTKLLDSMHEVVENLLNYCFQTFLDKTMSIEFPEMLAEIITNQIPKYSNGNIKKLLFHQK

[5] = agonist mode, EC50, read-out: PR Agonist CV-1 Cells Potency
[6] = 0.3 mg/rat oral once a day for three days + E1 10 μg
[7] = 1.0 mg/rat oral once a day for three days + E1 10 μg
[8] = 3.0 mg/rat oral once a day for three days + E1 10 μg

SMILES: CC1=CC(C)(C)Nc2ccc3c(c21)C(c1cccc(F)c1)Oc1ccccc1-3 (racemic) [Compound 191, (R/S)-5-(3-Fluorophenyl)-1,2-dihydro-2,2,4-trimethyl-5H-chromeno[3,4-f]quinoline]
- steroid receptor selectivity profile (PR, AR, ER, GR and MR): highly selective PR agonists
- EC50 (human PR-B; [5]): 0.009 µM
- IC50 (human PR-B): 0.15 µM
- Ki ([1]; read-out: PR Binding Ki): 0.001 µM

SMILES: CCCCC1Oc2ccc(F)cc2-c2ccc3c(c21)C(C)=CC(C)(C)N3 (racemic) [Compound 210, (R/S)-5-Butyl-9-fluoro-1,2-dihydro-2,2,4-trimethyl-5H-chromeno[3,4-f]quinoline]
- Mean Uterine Wet Weight [2, 6]: 110 mg
- Mean Uterine Wet Weight [2, 7]: 100 mg
- Mean Uterine Wet Weight [2, 8]: 100 mg
- effect on uterine wet weight when co-administered with estrone [2]: decreased by approximately half

SMILES: CC1CC(C)(C)Nc2ccc(-c3cc(F)cc(C#N)c3)cc21 (racemic) [Compound 455, (R/S)-6-(3-Cyano-5-Fluorophenyl)-1,2,3,4-Tetrahydro-2,2,4-trimethylquinoline]
- steroid receptor selectivity profile (PR, AR, ER, GR and MR): highly selective PR antagonists
- PR Agonist CV-1 Cells Efficacy (%) (human PR-B): na (na = not active (i.e. efficacy or <20 and potency of >10,000))
- PR Antagonist CV-1 Cells Efficacy (%) (human PR-B): 76%
- EC50 (human PR-B; [5]): > 10 µM
- IC50 (human PR-B): 0.035 µM
- Ki ([1]; read-out: PR Binding Ki): 0.01 µM

SMILES: CC1=CC(C)(C)Nc2cc3c(cc21)-c1ccc(F)cc1C3 [Compound 124, 8-Fluoro-1,2-dihydro-2,2,4-trimethylindeno[1,2-g]quinoline]
- steroid receptor selectivity profile (PR, AR, ER, GR and MR): highly selective PR antagonists
- EC50 (human PR-B): 1.6 µM
- PR Agonist CV-1 Cells Efficacy (%) (human PR-B; agonist mode, percent maximal response relative to reference agonist progesterone): 74%
- PR Antagonist CV-1 Cells Efficacy (%) (human PR-B; antagonist mode, progesterone at its EC50, % maximal inhibition): 36%
- IC50 (human PR-B; antagonist mode, progesterone at its EC50, IC50): 0.01 µM
- Ki [1]: 0.004 µM

SMILES: CC1=CC(C)(C)Nc2ccc3c(c21)/C(=C/c1ccccc1C)Oc1ccc(F)cc1-3 [Compound 374, (Z)-9-Fluoro-1,2-dihydro-2,2,4-trimethyl-5-(2-methylbenzylidene)-5H-chromeno[3,4-f]quinoline]
- steroid receptor selectivity profile (PR, AR, ER, GR and MR): highly selective PR agonists
- PR Agonist CV-1 Cells Efficacy (%) (human PR-B): 231%
- PR Antagonist CV-1 Cells Efficacy (%) (human PR-B): na (na = not active (i.e. efficacy or <20 and potency of >10,000))
- EC50 (human PR-B; [5]): 0.004 µM
- IC50 (human PR-B): > 10 µM
- Ki [1]: 0.0005 µM

SMILES: CC(=O)O[C@]1(C(C)=O)CC[C@H]2[C@@H]3C[C@H](C)C4=CC(=O)CC[C@]4(C)[C@H]3CC[C@@]21C [MPA, medroxyprogesterone acetate, reference compound]
- Mean Uterine Wet Weight [2, 6]: 140 mg
- Mean Uterine Wet Weight [2, 7]: 130 mg
- Mean Uterine Wet Weight [2, 8]: 130 mg
- effect on uterine wet weight when co-administered with estrone [2]: significantly decreased

SMILES: CC#C[C@]1(O)CC[C@H]2[C@@H]3CCC4=CC(=O)CCC4=C3[C@@H](c3ccc(N(C)C)cc3)C[C@@]21C [RU486, (11 beta, 17 beta)-11-[4-(dimethylamino)phenyl]-17-hydroxy-17-(1-propynyl)estra-4,9-dien-3-one, reference compound]
- MR Antagonist CV-1 Cells Efficacy (%) [3]: 77%
- GR Antagonist CV-1 Cells Efficacy (%) [4]: 100%

SMILES: CC(=O)S[C@@H]1CC2=CC(=O)CC[C@]2(C)[C@H]2CC[C@@]3(C)[C@@H](CC[C@@]34CCC(=O)O4)[C@H]12 [Spir, reference compound]
- MR Antagonist CV-1 Cells Efficacy (%) [3]: 96%
- IC50 [4]: 2 µM
- GR Antagonist CV-1 Cells Efficacy (%) [4]: 80%
